Reference: patent publication US20210113594A1, “TUMOR IMMUNOMODULATOR” (OSAKA UNIVERSITY, priority 2018, published 2021)

Tests used:
[1] = tested on: granzyme B-expressing CD8+T cells; experiment: Granzyme B staining (FACS) of PBMCs; format: cell-based, human; settings: DMC 2.5 μM + BiTE; PBMCs of four healthy people; p=0.01
Protocol: The medium collected in section 1(4) above was centrifuged at 400 g for 5 minutes, and the supernatant was removed to leave the PBMC pellet. Each antibody (CD3, CD4, CD8, and CD45RA) was diluted 100-fold with 2% FBS- and 10 mM HEPES-supplemented HBSS medium (“HBSS+2% FBS+10 mM HEPES” medium). Such antibody diluents were individually added at 30 μL/tube to the pellet in which the supernatant was removed, followed by incubation at 4° C. for 30 minutes. After an HBSS+2% FBS+10 mM HEPES medium was added at 200 μL/tube, and centrifugation was performed at 400 g for 5 minutes, the supernatant was removed to leave the pellet. After the remaining PBMCs were suspended by adding a fix buffer at 100 μL/tube, incubation was performed for 30 minutes at 4° C.
The tube obtained after the completion of incubation was centrifuged at 400 g for 5 minutes to remove the supernatant and leave the PBMC pellet. After a wash buffer was added at 200 μL/tube to suspend the pellet, centrifugation was performed at 400 g for 5 minutes to remove the supernatant and leave the PBMC pellet. An anti-Granzyme B antibody was diluted 100-fold in a wash buffer, and the remaining PBMCs were suspended in the antibody diluent (30 μL/tube), followed by incubation for 30 minutes at 4° C. […]

CD8+T cells = experiment: CytoTell assay, proliferative capacity of CD8+T cells; format: cell-based, human; settings: DMC 2.5 μM + BiTE; PBMCs of five healthy people; 96 hours; p=0.007
Protocol: PBMCs were collected from peripheral blood of healthy people according to the method described in section 1(1) above. A solution in which CytoTell red was mixed with the HBSS+2% FBS+10 mM HEPES medium was added to the collected PBMC pellet, followed by incubation at 37° C. for 30 minutes. After the completion of incubation, the supernatant was removed by centrifugation at 400 g for 5 minutes to leave the PBMC pellet. By adding a 10% FBS-supplemented RPMI medium, the remaining PBMCs were suspended to prepare a suspension of PBMCs having a cell count of 1×10^6/mL.
As in section 1(3) above, a U251 cell line, PBMCs, and BiTE, or a U251 cell line, PBMC, BiTE, and a test drug, were contacted and cultured at 37° C. for 96 hours.
After the completion of culture, the culture supernatant was collected, followed by washing in a 10% FBS-supplemented RPMI 1640 medium three times, and the media were also collected.
The collected medium was centrifuged at 400 g for 5 min, and the supernatant was removed to leave the PBMC pellet. Each antibody (CD3, CD4, CD8, and CD45RA) was diluted 100-fold with a HBSS+2% FBS+10 mM HEPES medium. The antibody diluents were individually added at 30 μL/tube to the pellet to suspend the remaining PBMCs, followed by incubation at 4° C. for 30 minutes. […]

[2] = tested on: CMV-specific cytotoxic T cells; experiment: CMV-specific CTL induction (mixed CMV peptide/lymphocytes culture); format: cell-based, human; settings: DMC 2.5 μM; 14 days after CMV peptide stimulation; PBMCs of one healthy person; p<0.05
Protocol: CMV peptides adjusted to 10 μg/mL in a 10% FBS-supplemented RPMI medium was added to PBMCs of healthy people with an HLA type of 24:02, followed by culture in a 96-well plate for 3 days. […] The medium containing PBMCs in each well was transferred into a 24-well plate for scale-up, followed by culture for another 3 days in a 10% FBS-supplemented RPMI medium containing 10 μg/mL peptide+20 U/mL IL-2±2.5 μM DMC. The medium was replaced with a 10% FBS-supplemented RPMI medium containing 10 μg/mL peptide+20 U/mL IL-2±2.5 μM DMC, followed by culture for another 4 days (culture for 14 days).
After the completion of culture, centrifugation was performed at 400 g for 5 minutes to remove the supernatant and leave the PBMC pellet; and each antibody (CD3, CD4, and CD8) was diluted 100-fold, and CMV Tetramer was diluted 10-fold in a HBSS+2% FBS+10 mM HEPES medium, and added at 30 μL/tube to a PBMC pellet to suspend the PBMCs, followed by incubation at 4° C. for 30 minutes. By adding the HBSS+2% FBS+10 mM HEPES medium at 200 μL/tube, centrifugation was performed at 400 g for 5 minutes. The supernatant was removed to leave the PBMC pellet.
The PBMCs left in the HBSS+2% FBS+10 mM HEPES medium were suspended, and the suspension was subjected to FACS analysis. […]

U251 cell line [3] = experiment: Tumor-cytotoxic activity of T cells in lung cancer tissue; format: cell-based, human; settings: BiTE + test drug (DMC); n=5 patients
Protocol: Regarding the tumor-cytotoxic activity of T cells in lung cancer tissue, cells were collected from lung cancer tissue according to the following method. The tumor-cytotoxic activity was measured as the activity of the cell population.
The cancer tissue was transferred to a 6-cm dish and minced. The cancer tissue was then placed in a tissue stirring solution (tumor dissociation Kit (Miltenyi Biotec) was added to HBSS+2% FBS+10 mM HEPES), followed by stirring with a gentle MACS™ Dissociator (Miltenyi Biotec). Incubation was then performed by rotating the mixture in an incubator maintained at 37° C. for 30 minutes. […] The tumor-cytotoxic activity of the collected cells was measured in accordance with the same method as in section I.1(1) to (5) above. […]
(§1) According to the method described in section I.5 above, T cells in tumor tissue of a lung cancer patient were collected; and by using such cells, tumor-cytotoxic activity was measured to examine the effect of the tetracycline-based compound. Specifically, T cells in tumor tissue of a lung cancer patient were collected according to the method described in section I.5 above; and the presence ratio of IFNγ-producing CD8^+T cells was measured according to the method described in section I.6 above, thus examining the effect of the tetracycline-based compound.

[4] = tested on: IFNγ-producing CD8+T cells; experiment: IFNγ production assay on cells from lung cancer tissue; format: cell-based, human; settings: BiTE + test drug (DMC), n=3 patients
Protocol: The IFNγ production capacity of cells in all media that were collected in section 5 in accordance with the method described in section 1(4) above was measured using an IFNγ secretion assay kit (Miltenyi Biotec).
The medium collected in section 1(4) above was centrifuged at 400 g for 5 minutes to remove the supernatant. An IFNγ catch reagent diluted 100-fold in a 10% human serum-supplemented AIM medium was added at 100 μL/tube to the remaining PBMC pellet to suspend the PBMCs, followed by incubation at 4° C. for 10 minutes.
A 10% human serum-supplemented AIM medium heated to 37° C. was dispensed at 1 mL/tube into the tube subjected to the incubation. While stirring the tube, incubation was performed at 37° C. for 45 minutes. […]
as §1

CT26WT cells = experiment: Dependence on CD8+T cells of the enhancement of the anti-PD-L1 antibody in vivo (Example 9); design: species or system BALB/c mice
Protocol: In the same manner as in Example 8, CT26WT cells were cultured, and subcutaneously inoculated to 6-week-old BALB/c mice (Day 0).
Before the administration of DMC or water and an anti-PD-L1 antibody, the anti-CD8 antibody (InVivo MAb anti-mouse CD8α, produced by BioXCell) was intraperitoneally administered at 400 μg/200 μL/mouse to the CD8 depletion group on Day 6. Control IgG was administered at 400 μg/200 μL/mouse to the other groups.
Next, administration of DMC was started on Day 7. The DMC was dissolved in saline, and then orally administered at 200 μL/mouse using an oral sonde. In the groups free of DMC, distilled water was orally administered at 200 μL/mouse. The DMC was administered once daily from Day 7 to Day 12.
Subsequently, on Day 10, an anti-PD-L1 antibody or control IgG was intraperitoneally administered at 200 μg/200 μL/mouse.
On Day 10 and Day 13, the tumor size was measured. The tumor volume was calculated in the same manner as in Example 8.

U251 cell line [5] = experiment: Tumor-cytotoxic activity using peripheral blood mononuclear cells with EphA2-CD3 BiTE; settings: test drug 2.5 μM + BiTE 100 ng/mL; PBMCs of healthy people + U251; 48 hours; n=3; DMC, MC, CTC p<0.01; TC, MINO p<0.05
Protocol: Thereafter, by measuring the degree of cytotoxicity to the tumor cells (tumor-cytotoxic activity) by the PBMCs, the anti-tumor activity of T cells in the PBMCs was evaluated.
(1) A U251 cell line was suspended in a RPMI1640 medium containing 10% FBS (a 10% FBS-supplemented RPMI1640 medium), and then detached with trypsin. The cell line was suspended in a 10% FBS-supplemented RPMI1640 medium such that the cell count was 1×10^5/mL, thereby preparing a cell suspension. The cell suspension was seeded in a 96-well plate at a rate of 100 μL/well, and incubated in a wet incubator at 37° C. for 18 hours in the presence of 5% CO2 gas. […]
(3) EphA 2-CD3 BiTE (registered trademark) containing an antigen-binding domain for EphA2 and an antigen-binding domain for CD3 in the molecule was prepared at 400 ng/mL in a 10% FBS-supplemented RPMI 1640 medium (“BiTE solution”). […] The amount of the 10% FBS-supplemented RPMI medium per well was determined so that the total final amount was 200 μL. […]
(5) The absorbance at 492 nm of each well of the 96-well microplate after the completion of incubation in step (4) was measured with a microplate reader. Subsequently, tumor-cytotoxic activity was calculated in accordance with the following equation.
Absorbance of a well consisting of U251 cell line and PBMCs=A […]

| Structure (SMILES) | presence ratio of granzyme B-expressing CD8+T cells as compared to BiTE alone [1] | proliferative capacity of CD8+T cells as compared to BiTE alone (CD8+T cells) | presence ratio of CMV-specific cytotoxic T cells (CMV Tetramer+CD8+T cells), DMC+ as compared to DMC− [2] | anti-tumor activity of T cells in lung cancer tissue compared to BiTE alone (U251 cell line [3]) | presence ratio of IFNγ-producing CD8+T cells compared to BiTE alone [4] | tumor volume on Day 13 (CT26WT cells; Example 9, DMC 30 mg/kg oral Day 7 to Day 12, anti-PD-L1 antibody or control IgG 200 μg/mouse ip Day 10, no CD8 depletion) | increase in tumor volume as compared to the aPD-L1+H2O group (CT26WT cells; IgG+DMC group, DMC 30 mg/kg oral) | T-cell anti-tumor activity (tumor-cytotoxic activity) as compared to BiTE alone (U251 cell line [5]) |
| --- | --- | --- | --- | --- | --- | --- | --- | --- |
| CN(C)[C@@H]1C(O)=C(C(N)=O)C(=O)[C@@]2(O)C(O)=C3C(=O)c4c(O)ccc(Cl)c4[C@@H](O)[C@H]3C[C@@H]12 [DMC, demethyl chlortetracycline] | high | high | significantly high | enhanced | increased | about 100 mm^3 | more inhibited | – |
| CN(C)[C@@H]1C(=O)C(C(N)=O)=C(O)[C@@]2(O)C(=O)C3=C(O)c4c(O)cccc4[C@@](C)(O)[C@H]3C[C@@H]12 [TC, tetracycline] | – | – | – | – | – | – | – | enhanced |
